Inconclusive results are not listed. Calls of active or inactive are those of the source.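 Rule for the calls: active = fitted activation curve crossing 40% at a concentration no higher than the sample's top valid tested dose; inconclusive = flat fitted curve at 30% to 70% activation, or poor curve fit; inactive = signal decrease, flat curve within 30%, or the rest.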 Peptide text beside a SMILES is read from it. * marks the point of attachment. Boc = CC(C)(C)OC(=O)*; OtBu = CC(C)(C)O*
Test system: NIH3T3-HGL HSF-1 response element luciferase, 48 h
Assay: HSF-1 reporter activators over prolonged exposure, confirmation, cell-based, mouse, luciferase, cherry-pick, dose (AID 602296);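 note: test compounds applied by themselves with no MG132 co-treatment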

| SMILES | AC40 |
| --- | --- |
| O=C(CSc1nnc(-c2c[nH]c3ccccc23)n1-c1ccc(F)cc1)NCc1ccco1 | 13.5 µM |
| Cc1ccc(N2Cc3ccccc3OC(C)C2=O)cc1 (stereo not drawn) | > 26 µM (inactive) |
| CCCC12CN3CC(C)(CN(C1)C3c1ccc3c(c1)OCO3)C2=O (stereo not drawn) | > 26 µM (inactive) |
| N=c1sccn1CC(=O)Nc1cc(Cl)ccc1Oc1ccccc1 | > 26 µM (inactive) |
| COc1ccc(-c2c(C)c3cc(O)ccc3oc2=O)cc1OC | > 26 µM (inactive) |
| O=c1[nH]n(CC2COC3(CCCCC3)O2)c(=O)c2ccccc12 (stereo not drawn) | 5.22 µM |
| COc1cccc(NC(=O)CSc2nc(N)cc(N)n2)c1 | > 26 µM (inactive) |
| O=C(OCc1csc(-c2ccccc2)n1)c1cccs1 | 0.901 µM |
| S=c1[nH]cc(Cc2ccccc2)s1 | 23.4 µM |
| COc1ccc(C(=O)CC(=O)C(=O)Nc2cc(OC)c(OC)c(OC)c2)cc1 | > 26 µM (inactive) |
| CCCCc1c(O)nc(SCC(=O)N2CCOCC2)n(-c2ccc(OC)cc2)c1=O | > 26 µM (inactive) |
| C/C(Cl)=C/Cc1c(C)[nH]c2ccc(C)cc2c1=O | 11.2 µM |
| [O-]/[N+](=C\c1ccc(OC(F)F)cc1)c1ccccc1 | > 26 µM (inactive) |
| O=C(c1ccc2c(=O)n(C3CCCC3)c(=S)[nH]c2c1)N1CCc2ccccc21 | > 26 µM (inactive) |
| C=CCC(NCc1ccco1)c1ccc(OC)c(OC)c1 (stereo not drawn) | > 26 µM (inactive) |
| COC1(OC)C(/C=C/c2ccc(Cl)cc2)C(C#N)(C#N)C1(OC)OC (stereo not drawn) | 16.9 µM |
| CCCCOc1ccc(-c2nc(/C=N/c3nccs3)c(O)o2)cc1 | 18.4 µM |
| C/C(Cn1cnc([N+](=O)[O-])n1)=N\NC(=O)c1ccccc1F | 2.7 µM |
| CNc1nc(SC(C)C(=O)Nc2ccc(Cl)c(Cl)c2)nc(N2CCOCC2)n1 (stereo not drawn) | > 26 µM (inactive) |
| NC(N)=NS(=O)(=O)c1ccc(NC(=S)NC(=O)c2ccc(Br)cc2)cc1 | 17.5 µM |
| O=C(O)C1CCCCC1C(=O)Nc1ccc2c(c1)CCC2 (stereo not drawn) | 5.08 µM |
| Cc1ccc(NC(=O)Cn2c(CCC(=O)O)ccc2-c2cccs2)cc1 | > 26 µM (inactive) |
| Fc1ccccc1-c1nc2nc3ccccc3nc2n1CC1CCCO1 (stereo not drawn) | 21.8 µM |
| COc1cc(OC)cc(-c2nnc(Sc3ccc(C=O)cc3[N+](=O)[O-])o2)c1 | > 26 µM (inactive) |
| Cc1ccc(C(=O)CNc2ccc(Cl)cc2)cc1 | > 26 µM (inactive) |

| SMILES | AC40 |
| --- | --- |
| O=C(N/N=C/c1ccc(-c2cccc([N+](=O)[O-])c2)o1)c1ccccc1O | > 26 µM (inactive) |
| CSc1c(C#N)c(N)nc2sc(C(=O)c3ccccc3)c(N)c12 | 5.48 µM |
| C=CCn1c(SCC(=O)Nc2cc(NC(C)=O)ccc2OC)nnc1-c1cccnc1 | > 26 µM (inactive) |
| O=c1[nH]c2ccc(S(=O)(=O)Nc3ccc(-c4nnc5n4CCCCC5)cc3)cc2o1 | > 26 µM (inactive) |
| O=C1c2cccc3cccc(c23)C(=O)N1OS(=O)(=O)c1ccccc1 | 16 µM |
| O=C1C2CC=CCC2C(=O)N1c1ccc(NCCc2ccccc2)c([N+](=O)[O-])c1 (stereo not drawn) | 3.31 µM |
| CC(=O)SC(C[N+](=O)[O-])c1cn(C(C)=O)c2ccccc12 (stereo not drawn) | > 26 µM (inactive) |
| COC(=O)[C@@H]1C[C@]2(OC(=O)c3ccccc3)C=CC(=O)C[C@@H]2N1C(=O)OCc1ccccc1 | 12.4 µM |
| O=C1CCC(/C=C/c2ccccc2)=NN1 | > 26 µM (inactive) |
| CCOC(=O)c1sc(C)c2c1NC(C)(c1cccc3ccccc13)NC2=O (stereo not drawn) | > 26 µM (inactive) |
| CCOC(=O)c1cnc2ccc(C)cc2c1Sc1ccc(F)cc1 | > 12 µM (inactive) |
| O=C(CCCC1=NS(=O)(=O)c2ccccc2N1)N1CCN(c2ccccc2)CC1 | > 26 µM (inactive) |
| O=C(c1ccc[nH]c1=S)N1CCN(S(=O)(=O)c2ccc(Br)cc2Cl)CC1 | > 26 µM (inactive) |
| CC(C)c1ccc(C2NC(=O)c3ccccc3O2)cc1 (stereo not drawn) | 5.17 µM |
| c1ccc2[nH]c3cc4ncnc4cc3nc2c1 | 5.43 µM |
| CC1(C)CC(=O)C2=C(C1)OC(N)=C(C#N)C2C#Cc1ccccc1 (stereo not drawn) | 10.4 µM |
| CC1(C)CC(=O)C(C2C3=C(CC(C)(C)CC3=O)OC3=C2C(=O)CC(C)(C)C3)=C(O)C1 | > 26 µM (inactive) |
| O=C(CC1(O)C(=O)Nc2ccc(Br)cc21)c1ccc2c(c1)OCO2 (stereo not drawn) | > 26 µM (inactive) |
| Cc1ccc(C(=O)Cn2nc(C(=O)O)c3ccccc3c2=O)cc1C | > 26 µM (inactive) |
| Oc1ccc(NC(=S)Nc2ccccc2)cc1 | > 26 µM (inactive) |
| CCOP(=O)(C(NC(=O)c1ccccc1Cl)=C(Cl)Cl)c1ccccc1 (stereo not drawn) | > 26 µM (inactive) |
| CCN(/N=C/C=C/c1ccccc1)c1cc(=O)n(C)c(=O)[nH]1 | > 26 µM (inactive) |
| COC(=O)C(Cc1ccc(O)cc1)NC(=O)C(CC(=O)OC(C)(C)C)NC(=O)OC(C)(C)C (stereo not drawn) (Boc-Asp(OtBu)-Tyr-OMe; configuration not given here) | 16.5 µM |
| Cc1cc(C)cc(Oc2ccccc2/C=C\C(=O)O)c1 | > 26 µM (inactive) |
| O=C1CCCN1CCCN=c1c([N+](=O)[O-])nn(-c2ccc(Cl)cc2)n1O | > 12 µM (inactive) |

| SMILES | AC40 |
| --- | --- |
| Cn1ccc(C(=O)N/N=C/c2ccncc2)n1 | 14.3 µM |
| COc1ccc(/C=C2/SC(=O)N(CCNC(=O)C3COc4ccccc4O3)C2=O)cc1 (stereo not drawn) | 5.69 µM |
| CCN(CC)C(=O)Oc1ccc(Br)cc1C(=O)Nc1ccc(F)cc1F | > 26 µM (inactive) |
| O=C(CSc1ccc(Cl)cc1)N1CCN(c2c(Cl)cccc2[N+](=O)[O-])CC1 | 3.34 µM |
| O=[N+]([O-])c1cc([N+](=O)[O-])c(Oc2c(F)cccc2F)cc1NN1CCCCC1 | > 26 µM (inactive) |
| COc1cccc(N=Nc2c(O)[nH]c(=S)[nH]c2=O)c1 | 10.1 µM |
| O=C(NNc1cccc(Cl)n1)Nc1ccc(Cl)cc1 | > 26 µM (inactive) |
| CN(C)c1nc(N)nc(CSc2nnnn2-c2ccc(F)cc2)n1 | > 26 µM (inactive) |
| Cn1c(C(=O)OC(C(=O)NC(C)(C)C)c2cccnc2)cc2sccc21 (stereo not drawn) | > 26 µM (inactive) |
| Cc1ccc(NC2c3ncccc3C(=O)N2C2CCCCC2)cc1 (stereo not drawn) | > 26 µM (inactive) |
| S=C(Nc1ccc(Cl)cc1)Nc1cccc2cnccc12 | > 26 µM (inactive) |
| COc1cccc(CNC(=O)Cn2nc(C)c([N+](=O)[O-])c2C)c1 | > 26 µM (inactive) |
| CCc1[nH]nc2c1C1(CCN(C(=O)OCc3ccccc3)CC1)C(C#N)=C(N)O2 | > 26 µM (inactive) |
| Cc1cccc(N2C(=O)C(O)=C(C(=O)c3cccs3)C2c2ccc(C(C)C)cc2)n1 (stereo not drawn) | 9.04 µM |
| O=C(Nc1cccn(Cc2c(Cl)cccc2Cl)c1=O)c1ccccc1Cl | > 26 µM (inactive) |
| O=C(NCC1CCCO1)c1nn2c(C(F)(F)F)cc(-c3cc(Br)cs3)nc2c1Br (stereo not drawn) | > 26 µM (inactive) |
| CC(C)OC(=O)c1ccc(COc2ccc3ccc(=O)oc3c2)o1 | 3.16 µM |
| Cc1nc(SCCOc2ccc(F)cc2)c2ccccc2n1 | 3.44 µM |
| Cc1nc2scc(-c3ccc(Cl)cc3)c2c(=O)n1N | > 26 µM (inactive) |
| C=CCN(C(=O)CCC(=O)Nc1cc(C)on1)C(C(=O)NC(C)(C)C)c1cccc(OC)c1OC (stereo not drawn) | > 26 µM (inactive) |
| CCOC(=O)c1sc2nc(C)nc(SCC(=O)NC3CCS(=O)(=O)C3)c2c1C (stereo not drawn) | > 26 µM (inactive) |
| O=C(O)CC12C[C@H]3C[C@@H](C1)CC(n1ncc(N4CCN(c5ccccc5)CC4)c(Cl)c1=O)(C3)C2 | > 26 µM (inactive) |
| COCCCNC(=O)c1ccc(NS(C)(=O)=O)cc1 | > 26 µM (inactive) |
